Data: patent US20100113599A1, “AMPHIPATHIC CARBOXYLATES FOR THE TREATMENT OF IMMUNE-RELATED DISORDERS” (Syndromex Ltd. c/o Yissum Research Development Company, of, priority 2007, published 2010)

Legend:
STAT3 [1] = assay: IL-6-induced STAT3 phosphorylation in Hek293 kidney cells (Western blot); format: cell-based; settings: 250 μM 9 h, serum free medium 0.2% Albumin, IL-6 20 ng/ml last 5.5 h
Experimental: Hek293 cells were incubated for 9 h with M16αα (250 μM) in serum free medium containing 0.2% Albumin. IL-6 (20 ng/ml) was added during the last 5.5 h period. Western blots of cell lysates were reacted with anti gp130 and anti P-STAT3 (Y705) antibodies and normalized by β-actin. Abbreviations: cont. (control).
The examined effect of MEDICA drugs on expression of APP, was further analyzed by analyzing the effect of M16αα on downstream elements in the signaling pathway leading to expression of APP. Signal Transducers and Activators of Transcription 3 (STAT3), is a transcription factor phosphorylated by JAK kinases in response to cytokine activation of a cell surface receptor tyrosine kinases. Cytokines that activate STAT3 include growth hormone, IL-6 family cytokines, Oncostatin, LIF, CNTF and G-CSF, Leptin and others. As illustrated by FIG. 1, upon cytokine activation, the STAT3 proteins dimerize and are localized to the nucleus where they activate transcription of APP as well as of other cytokine-responsive genes coding for cell survival, growth and proliferation. Therefore, the inventors next examined whether the effect of MEDICA drugs on the expression of APP is a result of interfering with STAT3 transcription activity or whether MEDICA drugs are involved in a more upstream element of the transduction pathway such as the gp130 receptor. […]

STAT3 [2] = assay: STAT3 phosphorylation in MM U266 cells (Western blot); format: cell-based; settings: 200 μM, RPMI 1640, 10% FCS
Experimental: U266 cells were cultured with 200 μM M16αα for time periods as indicated, lysed, Western blotted and reacted with anti STAT3, p-STAT3 (Y705), PARP or Bcl-xL antibodies.
To examine the possibility that the inhibitory effect of M16αα, on Multiple Myeloma may be mediated by enhancement of pro apoptotic mechanism and induction of cell cycle arrest, U266 cells were cultured with 200 μM M16αα in RPMI 1640 medium with 10% FCS for time periods as indicated, lysed, Western blotted and reacted with anti STAT3, p-STAT3 (Y705), PARP or Bcl-xL and Bcl-2 as indicated.

[3] = test system: Experimental Autoimmune Encephalomyelitis (EAE); assay: EAE (MOG35-55) model for MS, clinical score; format: in vivo, female C57BL/6 mice; settings: for day of fully established EAE: control day 24
STAT3, GP130 = assay: STAT3 activation and GP130 in stimulated spleen cells of treated EAE mice (Western blot); format: in vivo; settings: EAE mice 60 mg/kg/day 12 days by gavage
Experimental: To further investigate the preventive potential of MEDICA drugs, and specifically of M16αα on EAE model, the effect of these drugs on different pathways involving activation of the immune system have been next examined. Therefore, female mice were treated with M16αα (60 mg/kg/day) or vehicle (1% CMC, the control group) for 12 days by gavage. On the third day EAE has been induced by injection of the MOG35-55 peptide. Nine days following MOG35-55 peptide immunization, mice were anesthesized and sacrificed. Spleenocytes were prepared and were stimulated in vitro with either MOG (100 μg/ml) or LPS (50 μg/ml) and the activation of STAT3 was analyzed by Western blot using anti p-STAT3 (Y705) and anti GP130 antibodies. Liver was immediately frozen in liquid nitrogen and kept at −70 until used for protein and RNA preparation. Total RNA was prepared and analyzed by real time PCR for SAP, SAA, α-fibrinogen and IL-6 gene expression.

human CRP [4] = assay: Basal plasma human CRP in hCRPtg mice (ELISA); format: in vivo; settings: 80 mg/kg/d by gavage for ten days, before treatment 0.619
Experimental: hCRPtg were treated for 10d with M16αα (80 mg/kg/d) dissolved in 1% CMC and administered by gavage. Plasma basal CRP was determined before and at the end of treatment by ELISA.
Unlike human CRP, mouse CRP is not an acute-phase reactant, and is synthesized hi trace amounts only. However, male hCRP transgene mice (hCRPtg), having the human CRP gene flanked by most of human CRP promoter integrated in their genome, constitutively produce human CRP, with serum levels ranging between 10 and 20 μg/mL.
(§1) Therefore, hCRPtg mice were treated for ten days with M16αα (80 mg/kg/d) dissolved in 1% CMC and administered by gavage. Plasma CRP was determined by ELISA at the beginning and at the end of treatment. […] The inventors further examined the effect of the MEDICA drugs on LPS-induced CRP. Therefore, CRP expression was analyzed in hCRPtg mice treated with M16αα 0.06% (W/W) (about 60 mg/kg body weight/day) for fourteen days and challenged with LPS (25 μg/mice) for the last 18 h. As illustrated by the histogram of FIG. 25, treatment with M16αα decreases LPS-induced levels of human CRP.

human CRP [5] = assay: LPS-induced human CRP in hCRPtg mice; format: in vivo; settings: 0.06% (W/W) (about 60 mg/kg body weight/day) for fourteen days, LPS 25 μg/mice last 18 h
Experimental: The effect of M16αα in decreasing human CRP induced by LPS injection was analyzed in hCRPtg mice treated with M16αα for 14 days and challenged with LPS.
as §1

For CC(C)(CCCCCCCCCCCCC(C)(C)C(=O)O)C(=O)O [M16αα, 2,2,15,15-tetramethyl-hexadecanedioic acid], the “IL-6-induced phosphorylation of STAT3 Y705” value (STAT3 [1]) was “Inhibition”, the “STAT3 phosphorylation (p-STAT3 Y705)” value (STAT3 [2]) was “clear reduction” and the “average maximal clinical score” value ([3]; Preventive Group A: 30 mg/kg BW daily from three days prior to MOG challenge to day 37, control group D 4.3) was 1.3. The “average maximal clinical score upon termination of treatment” value ([3]; Preventive Group A: after termination of treatment (vehicle day 37 to day 52), control group D 4.3) was about 2.0, the “average maximal clinical score” value ([3]; group B: 30 mg/kg BW daily from seventh day following MOG injection to day 52, control group D 4.3) was 4.3 and the “day of fully established EAE” value ([3]; group B: 30 mg/kg BW daily from seventh day to day 52) was 40 days. The “day of fully established EAE” value ([3]; group C: 30 mg/kg BW daily from first day to day 52) was 40 days, the “average maximal clinical score” value ([3]; group C: 30 mg/kg BW daily from first day to day 52, control group D 4.3) was 3.8 and the “LPS-induced STAT3 (p-STAT3 Y705) in spleen cells” value (STAT3, GP130; spleenocytes stimulated in vitro with LPS 50 μg/ml) was “not the LPS-induced STAT3 is suppressed”. The “MOG-induced STAT3 (p-STAT3 Y705) in spleen cells” value (STAT3, GP130; spleenocytes stimulated in vitro with MOG 100 μg/ml) was “suppressed”, the “basal levels of human CRP in plasma at the end of treatment” value (human CRP [4]) was 0.396 and the “LPS-induced levels of human CRP” value (human CRP [5]) was “decreases”.
